Tests used:
Format in all cases: in vivo
[1] = system: annual bluegrass (Poa annua L.) having lowered sensitivity to herbicides; assay: Test Example 8: foliar treatment of annual bluegrass having lowered sensitivity to herbicides, visual growth inhibition rate; conditions: foliar treatment at 5 to 6-leaf stage, 14th day after treatment
Excerpt: When the herbicidal activity in a case where two active ingredients are combined, is larger than the simple sum of the respective herbicidal activities of the two active ingredients (the expected activity), it is called a synergistic effect. The activity expected by the combination of two active ingredients can be calculated as follows (Colby S. R., “Weed”, vol. 15, p. 20-22, 1967). E1=α+β−(α×β÷100)
(§1) Growth inhibition rate (%)=0 (equivalent to the non-treated area) to 100 (complete kill)
Upland field soil was put into a 1/1,000,000 ha pot, and seeds of annual bluegrass (Poa annua L.) having lowered sensitivity to herbicides were sown. When the annual bluegrass reached 5 to 6-leaf stage, predetermined amounts of ONEHOPE NYUZAI (tradename) and Dual Gold (tradename) were diluted with water (corresponding to 300 L/ha) and applied for foliar treatment by a small sprayer.
The growth inhibition rate (%) (measured value) and the growth inhibition rate (%) calculated in the same manner as in Test Example 1 are shown in Table 9.

[2] = system: green kyllinga (Kyllinga brevifolia Rottb. var. leiolepis) having lowered sensitivity to herbicides; assay: Test Example 6: foliar treatment of green kyllinga having lowered sensitivity to herbicides, visual growth inhibition rate; conditions: foliar treatment at height 5 to 7 cm, 21st day after treatment
Excerpt: When the herbicidal activity in a case where two active ingredients are combined, is larger than the simple sum of the respective herbicidal activities of the two active ingredients (the expected activity), it is called a synergistic effect. The activity expected by the combination of two active ingredients can be calculated as follows (Colby S. […] E1=α+β-(α×β÷100) On the 22nd day after treatment, the state of growth of the common cocklebur was visually observed to determine the growth inhibition rate in accordance with the following evaluation standard. The growth inhibition rate (%) (measured value) and the growth inhibition rate (%) (calculated value) calculated by the Colby's formula are shown in Table 1. […] Upland field soil was put into a 1/1,000,000 ha pot, and rhizomes of green […] brevifolia Rottb. var. leiolepis) having lowered sensitivity to herbicides were planted. When the height of green […] reached 5 to 7 cm, predetermined amounts of […] Dual Gold (tradename) were diluted with water (corresponding to 300 Uha) and applied for foliar treatment by a small sprayer. On the 21st day after treatment, the state of growth of the green […] visually observed to determine the growth inhibition rate.

[3] = system: wild oat (Avena fatua L.); assay: Test Example 3: soil treatment, wild oat, visual growth inhibition rate; conditions: soil treatment the day after sowing, 14th day after treatment
Excerpt: When the herbicidal activity in a case where two active ingredients are combined, is larger than the simple sum of the respective herbicidal activities of the two active ingredients (the expected activity), it is called a synergistic effect. The activity expected by the combination of two active ingredients can be calculated as follows (Colby S. R., “Weed”, vol. 15, p. 20-22, 1967). […] In a case where three active ingredients are combined, the activity can be similarly calculated as follows. […] On the 22nd day after treatment, the state of growth of the common cocklebur was visually observed to determine the growth inhibition rate in accordance with the following evaluation standard. The growth inhibition rate (%) (measured value) and the growth inhibition rate (%) (calculated value) calculated by the Colby's formula are shown in Table 1. […] On the 14th day after treatment, the state of growth of the wild oat was visually observed to determine the growth inhibition rate.

[4] = system: Japanese bristlegrass (Setaria faberi Herrm); assay: Test Example 7: soil treatment, residual activity, Japanese bristlegrass sown 14 days after treatment; conditions: seeds sown on the 14th day after treatment, 21st day after sowing
Excerpt: When the herbicidal activity in a case where two active ingredients are combined, is larger than the simple sum of the respective herbicidal activities of the two active ingredients (the expected activity), it is called a synergistic effect. The activity expected by the combination of two active ingredients can be calculated as follows (Colby S. R., “Weed”, vol. 15, p. 20-22, 1967). E1=α+β-(α×β÷100) On the 22nd day after treatment, the state of growth of the common cocklebur was visually observed to determine the growth inhibition rate in accordance with the following evaluation standard. The growth inhibition rate (%) (measured value) and the growth inhibition rate (%) (calculated value) calculated by the Colby's formula are shown in Table 1. […] Upland field soil was put into a 1/500,000 ha pot, and on the next day, predetermined amounts of […] Dual Gold (tradename) were diluted with water (corresponding to 300 L/ha) and applied for soil treatment by a small sprayer. On the 14th day after treatment, seeds of Japanese bristlegrass (Setaria faberi Herrm) and spotted knotweed, (Polygonum lapathifolium L.) were sown. On the 21st day after sowing, the state of growth of the Japanese bristlegrass and the spotted knotweed was visually observed to determined the growth inhibition rate.

[5] = system: sunn-hemp (Crotalaria juncea L.); assay: Test Example 4: soil treatment, sunn-hemp, visual growth inhibition rate; conditions: soil treatment the day after sowing, 28th day after treatment
Excerpt: In a case where three active ingredients are combined, the activity can be similarly calculated as follows. E2=(α+β+γ)−(αβ+αγ+βγ)/100+(αβγ)/10000 where α: growth inhibition rate when treated with x (g/ha) of herbicide X,
as §1
Upland field soil was put into a 1/300,000 ha pot, and seeds of sunn-hemp (Crotalaria juncea L.) were sown.

[6] = system: Japanese millet (Echinochloa utilis Ohwi et Yabuno); assay: Test Example 2: soil treatment, Japanese millet, visual growth inhibition rate; conditions: soil treatment the day after sowing, 27th day after treatment
Excerpt: When the herbicidal activity in a case where two active ingredients are combined, is larger than the simple sum of the respective herbicidal activities of the two active ingredients (the expected activity), it is called a synergistic effect. The activity expected by the combination of two active ingredients can be calculated as follows (Colby S. R., “Weed”, vol. 15, p. 20-22, 1967). E1=α+β−(α×β÷100) On the 22nd day after treatment, the state of growth of the common cocklebur was visually observed to determine the growth inhibition rate in accordance with the following evaluation standard. The growth inhibition rate (%) (measured value) and the growth inhibition rate (%) (calculated value) calculated by the Colby's formula are shown in Table 1. […] Upland field soil was put into a 1/1,000,000 ha pot, and seeds of Japanese millet (Echinochloa utilis Ohwi et Yabuno) were sown. […] On the 27th day after treatment, the state of growth of the Japanese millet was visually observed to determine the growth inhibition rate.

| Compound | inhibition at 100 g/ha ([1]; Poa annua, dose 100 g/ha, read-out: Growth inhibition rate (%) of annual bluegrass, Measured value) [%] | inhibition at 30 g/ha ([2]; Cyperus brevifolius, dose 30 g/ha, read-out: Growth inhibition rate (%) of green kyllinga, Measured value) [%] | inhibition at 100 g/ha ([2]; Cyperus brevifolius, dose 100 g/ha, read-out: Growth inhibition rate (%) of green kyllinga, Measured value) [%] | inhibition at 10 g/ha ([3]; Avena fatua, dose 10 g/ha, read-out: Growth inhibition rate (%) of wild oat, Measured value) [%] | inhibition at 100 g/ha ([3]; Avena fatua, dose 100 g/ha, read-out: Growth inhibition rate (%) of wild oat, Measured value) [%] | inhibition at 100 g/ha ([4]; Setaria faberi, dose 100 g/ha, read-out: Growth inhibition rate (%) of Japanese bristlegrass, Measured value) [%] | inhibition at 10 g/ha ([5]; Crotalaria juncea, dose 10 g/ha, read-out: Growth inhibition rate (%) of sunn-hemp, Measured value) [%] | inhibition at 100 g/ha ([5]; Crotalaria juncea, dose 100 g/ha, read-out: Growth inhibition rate (%) of sunn-hemp, Measured value) [%] | inhibition at 15 g/ha ([6]; dose 15 g/ha, read-out: Growth inhibition rate (%) of Japanese millet, Measured value) [%] | Growth inhibition rate (%) of annual bluegrass, Measured value ([1]; dose 1000 g/ha) [%] | Growth inhibition rate (%) of annual bluegrass, Measured value ([1]; dose 2000 g/ha) [%] | Growth inhibition rate (%) of green kyllinga, Measured value ([2]; dose 500 g/ha) [%] | Growth inhibition rate (%) of green kyllinga, Measured value ([2]; dose 1000 g/ha) [%] | Growth inhibition rate (%) of wild oat, Measured value ([3]; dose 250 g/ha) [%] | Growth inhibition rate (%) of wild oat, Measured value ([3]; dose 2000 g/ha) [%] | Growth inhibition rate (%) of Japanese bristlegrass, Measured value ([4]; dose 250 g/ha) [%] | Growth inhibition rate (%) of sunn-hemp, Measured value ([5]; dose 250 g/ha) [%] | Growth inhibition rate (%) of sunn-hemp, Measured value ([5]; dose 2000 g/ha) [%] | Growth inhibition rate (%) of Japanese millet, Measured value ([6]; dose 500 g/ha) [%] |
| --- | --- | --- | --- | --- | --- | --- | --- | --- | --- | --- | --- | --- | --- | --- | --- | --- | --- | --- | --- |
| COc1cc(OC)nc(NC(=O)NS(=O)(=O)c2ncccc2C(=O)N(C)C)n1 [Nicosulfuron, 2-(4,6-dimethoxypyrimidin-2-ylcarbamoylsulfamoyl)-N,N-dimethylnicotinamide] | 87 | 20 | 40 | 10 | 40 | 33 | 0 | 0 | 5 | – | – | – | – | – | – | – | – | – | – |
| a mixture of (aRS,1S)-2-chloro-6′-ethyl-N-(2-methoxy-1-methylethyl)aceto-o-toluidide (80 to 100%) and (aRS,1R)-2-chloro-6′-ethyl-N-(2-methoxy-1-methylethyl)aceto-o-toluidide (20 to 0%) [S-metolachlor] | – | – | – | – | – | – | – | – | – | 18 | 28 | 15 | 45 | 15 | 60 | 10 | 0 | 0 | 80 |
